Experimental data reported in patent publication US8916702B2 (priority 2012, dated 2014).
pEC50: −log10 of the molar value.

System: HCV pseudoparticles (genotype 1a HCV E1 and E2 envelope, H77C isolate)
Experiment: microbe, parasite or virus in culture
Format: cell-based
Conditions: Hepatitis C virus, Huh-7, 48 h, HCV pseudoparticle infection of Huh7 cells, luciferase 2 days after infection; average of duplicates

| SMILES | pEC50 |
| --- | --- |
| COC(=O)[C@H](CCNC(=O)C(=O)NCCn1ccnc1C)NC(=O)c1ccc(Nc2nc(NC3(c4ccc(Cl)cc4)CC3)nc(OCC(F)(F)F)n2)cc1 [Compound 1323] | 8.20 |
| CC(C)(CNC(=O)C(=O)Nc1cccc(CCC(=O)O)c1)CNC(=O)c1ccc(Nc2nc(NC3(c4ccc(Cl)cc4)CC3)nc(OCC(F)(F)F)n2)cc1 [Compound 1482] | 9.77 |

Same assay, conditions: Hepatitis C virus, Huh-7, 48 h, HCV pseudoparticles (genotype 1a, H77C) in Huh7 cells; average of duplicate; luciferase 2 days after infection

| SMILES | pEC50 |
| --- | --- |
| CC(C)(CNC(=O)C(=O)Nc1cccc(F)c1F)CNC(=O)c1ccc(Nc2nc(NC3(c4ccc(Cl)cc4)CC3)nc(OCC(F)(F)F)n2)cc1 [Compound 3261] | 10.14 |
| Cc1ccc(NC(=O)C(=O)NCC(C)(C)CNC(=O)c2ccc(Nc3nc(NC4(c5ccc(Cl)cc5)CC4)nc(OCC(F)(F)F)n3)cc2)c(F)c1 [Compound 3056] | 11.15 |
| CCc1ccc(NC(=O)C(=O)NC[C@H](NC(=O)c2ccc(Nc3nc(NC4(c5ccc(Cl)cc5)CC4)nc(OCC(F)(F)F)n3)cc2)C(=O)O)cc1 [Compound 3296] | 9.62 |
| O=C(NCC(O)CNC(=O)c1ccc(Nc2nc(NC3(c4ccc(Cl)cc4)CC3)nc(OCC(F)(F)F)n2)cc1)C(=O)Nc1ccc(F)cc1 (stereo not drawn) [Compound 3365] | 10.62 |
| NC(=O)NCc1ccc(NC(=O)C(=O)NC[C@H](NC(=O)c2ccc(Nc3nc(NC4(c5ccc(Cl)cc5)CC4)nc(OCC(F)(F)F)n3)cc2)C(=O)O)cc1 [Compound 3281] | 8.89 |

Same assay, conditions: Hepatitis C virus, Huh-7, 48 h, HCV pseudoparticles, Huh7 cells, luciferase 2 days after infection; average of duplicates

| SMILES | pEC50 |
| --- | --- |
| CC(F)Oc1cccc(NC(=O)C(=O)NCC[C@H](NC(=O)c2ccc(Nc3nc(NC4(c5ccc(Cl)cc5)CC4)nc(OCC(F)(F)F)n3)cc2)C(=O)O)c1 (stereo partly drawn) [Compound 3633] | 10.24 |

Same assay, conditions: Hepatitis C virus, Huh-7, 48 h, read-out: Activity (EC50 class), HCV pseudoparticle infection of Huh7 cells, luciferase 2 days after infection; EC50 expressed as class A/B

| SMILES | pEC50 |
| --- | --- |
| COC(=O)[C@H](CNC(=O)C(=O)N(C)c1ccccc1)NC(=O)c1ccc(Nc2nc(NC3(c4ccc(Cl)cc4)CC3)nc(OCC(F)(F)F)n2)cc1 [Compound 1257] | 8.00 to 11.00 |
| COC(=O)[C@H](CCNC(=O)C(=O)NCC1CCCc2ccccc21)NC(=O)c1ccc(Nc2nc(NC3(c4ccc(Cl)cc4)CC3)nc(OCC(F)(F)F)n2)cc1 (stereo partly drawn) [Compound 1322] | 8.00 to 11.00 |
| O=C(NCC[C@H](NC(=O)c1ccc(Nc2nc(NC3(c4ccc(Cl)cc4)CC3)nc(OCC(F)(F)F)n2)cc1)C(=O)O)C(=O)NC1CCC(O)CC1 (stereo partly drawn) [Compound 1118] | 8.00 to 11.00 |
| COC(=O)[C@H](CCNC(=O)C(=O)Nc1ccnn1C)NC(=O)c1ccc(Nc2nc(NC3(c4ccc(Cl)cc4)CC3)nc(OCC(F)(F)F)n2)cc1 [Compound 1239] | 8.00 to 11.00 |
| O=C(NCC[C@H](NC(=O)c1ccc(Nc2nc(NC3(c4ccc(Cl)cc4)CC3)nc(OCC(F)(F)F)n2)cc1)C(=O)O)C(=O)NC1CCCCC1O (stereo partly drawn) [Compound 1113] | 8.00 to 11.00 |
| O=C(NCC[C@H](NC(=O)c1ccc(Nc2nc(NC3(c4ccc(Cl)cc4)CC3)nc(OCC(F)(F)F)n2)cc1)C(=O)O)C(=O)NCc1cc(F)cc(F)c1 [Compound 1192] | 8.00 to 11.00 |
| COc1cc(OC)nc(-c2ccc(NC(=O)C(=O)NCC(C)(C)CNC(=O)c3ccc(Nc4nc(NC5(c6ccc(Cl)cc6)CC5)nc(OCC(F)(F)F)n4)cc3)cc2)n1 [Compound 1596] | 8.00 to 11.00 |
| Cc1cc(NC(=O)C(=O)NCC(C)(C)CNC(=O)c2ccc(Nc3nc(NC4(c5ccc(Cl)cc5)CC4)nc(OCC(F)(F)F)n3)cc2)no1 [Compound 1548] | 8.00 to 11.00 |
| COC(=O)[C@H](CCNC(=O)C(=O)NCCn1ccnc1C)NC(=O)c1ccc(Nc2nc(NC3(c4ccc(Cl)cc4)CC3)nc(OCC(F)(F)F)n2)cc1 [Compound 1323] | 8.00 to 11.00 |
| CCC(C)CNC(=O)C(=O)NC[C@@H](NC(=O)c1ccc(Nc2nc(NC3(c4ccc(Cl)cc4)CC3)nc(OCC(F)(F)F)n2)cc1)C(=O)O (stereo partly drawn) [Compound 1044] | 8.00 to 11.00 |
| COC(=O)[C@H](CCNC(=O)C(=O)NCCc1cccc(OC)c1)NC(=O)c1ccc(Nc2nc(NC3(c4ccc(Cl)cc4)CC3)nc(OCC(F)(F)F)n2)cc1 [Compound 1309] | 8.00 to 11.00 |
| Cn1ccnc1NC(=O)C(=O)NCC[C@H](NC(=O)c1ccc(Nc2nc(NC3(c4ccc(Cl)cc4)CC3)nc(OCC(F)(F)F)n2)cc1)C(=O)O [Compound 1264] | 6.00 to 8.00 |
| CC(C)(CNC(=O)C(=O)Nc1cccc(CC(=O)O)c1)CNC(=O)c1ccc(Nc2nc(NC3(c4ccc(Cl)cc4)CC3)nc(OCC(F)(F)F)n2)cc1 [Compound 1480] | 8.00 to 11.00 |
| O=C(NCC[C@H](NC(=O)c1ccc(Nc2nc(NC3(c4ccc(Cl)cc4)CC3)nc(OCC(F)(F)F)n2)cc1)C(=O)O)C(=O)NCC1(Cn2cccn2)CC1 [Compound 1428] | 8.00 to 11.00 |
| O=C(NCC[C@H](NC(=O)c1ccc(Nc2nc(NC3(c4ccc(Cl)cc4)CC3)nc(OCC(F)(F)F)n2)cc1)C(=O)O)C(=O)NCC1CCc2ccccc21 (stereo partly drawn) [Compound 1345] | 8.00 to 11.00 |
| O=C(NCC[C@H](NC(=O)c1ccc(Nc2nc(NC3(c4ccc(Cl)cc4)CC3)nc(OCC(F)(F)F)n2)cc1)C(=O)O)C(=O)NCC1CCCCC1 [Compound 1181] | 8.00 to 11.00 |
| COC(=O)[C@H](CCNC(=O)C(=O)NCc1cccc(F)c1F)NC(=O)c1ccc(Nc2nc(NC3(c4ccc(Cl)cc4)CC3)nc(OCC(F)(F)F)n2)cc1 [Compound 1160] | 8.00 to 11.00 |
| COC(=O)[C@H](CNC(=O)C(=O)NC1Cc2ccccc2C1)NC(=O)c1ccc(Nc2nc(NC3(c4ccc(Cl)cc4)CC3)nc(OCC(F)(F)F)n2)cc1 [Compound 1291] | 8.00 to 11.00 |
| CC(C)(CNC(=O)C(=O)Nc1cccc(CCC(=O)O)c1)CNC(=O)c1ccc(Nc2nc(NC3(c4ccc(Cl)cc4)CC3)nc(OCC(F)(F)F)n2)cc1 [Compound 1482] | 8.00 to 11.00 |
| COc1cc(NC(=O)C(=O)NCC[C@H](NC(=O)c2ccc(Nc3nc(NC4(c5ccc(Cl)cc5)CC4)nc(OCC(F)(F)F)n3)cc2)C(=O)O)ccc1-c1ccccc1 [Compound 1519] | 8.00 to 11.00 |

Same assay, conditions: Hepatitis C virus, Huh-7, 48 h, read-out: Activity (EC50 class), HCV pseudoparticles, Huh7 cells, luciferase 2 days after infection; average of duplicates

| SMILES | pEC50 |
| --- | --- |
| CC(F)Oc1cccc(NC(=O)C(=O)NCC[C@H](NC(=O)c2ccc(Nc3nc(NC4(c5ccc(Cl)cc5)CC4)nc(OCC(F)(F)F)n3)cc2)C(=O)O)c1 (stereo partly drawn) [Compound 3633] | 8.00 to 11.00 |
| COc1cccc2sc(NC(=O)C(=O)NCC(C)(C)CNC(=O)c3ccc(Nc4nc(NC5(c6ccc(Cl)cc6)CC5)nc(OCC(F)(F)F)n4)cc3F)nc12 [Compound 3814] | 8.00 to 11.00 |
| C=Cc1cccc(NC(=O)C(=O)NC[C@H](NC(=O)c2ccc(Nc3nc(NC4(c5ccc(Cl)cc5)CC4)nc(OCC(F)(F)F)n3)cc2)C(=O)OC)c1 [Compound 3690] | 8.00 to 11.00 |
| COc1ccc(CN(CC(C)(O)CNC(=O)c2ccc(Nc3nc(NC4(c5ccc(Cl)cc5)CC4)nc(OCC(F)(F)F)n3)cc2)C(=O)C(=O)Nc2ccc(C)cc2)c(OC)c1 (stereo not drawn) [Compound 3833] | 8.00 to 11.00 |
| CS(=O)(=O)c1cccc(NC(=O)C(=O)NC[C@H](NC(=O)c2ccc(Nc3nc(NC4(c5ccc(Cl)cc5)CC4)nc(OCC(F)(F)F)n3)cc2)C(=O)O)c1 [Compound 3763] | 8.00 to 11.00 |
| COC(=O)[C@H](CNC(=O)C(=O)Nc1cccc(S(C)(=O)=O)c1)NC(=O)c1ccc(Nc2nc(NC3(c4ccc(Cl)cc4)CC3)nc(OCC(F)(F)F)n2)cc1 [Compound 3707] | 8.00 to 11.00 |
| O=C(NC[C@H](NC(=O)c1ccc(Nc2nc(NC3(c4ccc(Cl)cc4)CC3)nc(OCC(F)(F)F)n2)cc1)C(=O)O)C(=O)Nc1cccc(-c2cnco2)c1 [Compound 3752] | 8.00 to 11.00 |

Same assay, conditions: Hepatitis C virus, Huh-7, read-out: Activity (EC50 class), HCV pseudoparticles (genotype 1a, H77C) in Huh7 cells; EC50 expressed as class A/B

| SMILES | pEC50 |
| --- | --- |
| COC(=O)[C@H](CNC(=O)C(=O)Nc1ccc(-c2csc(C)n2)cc1)NC(=O)c1ccc(Nc2nc(NC3(c4ccc(Cl)cc4)CC3)nc(OCC(F)(F)F)n2)cc1 [Compound 3190] | 8.00 to 11.00 |
| CC(C)(CNC(=O)C(=O)Nc1cccc(F)c1F)CNC(=O)c1ccc(Nc2nc(NC3(c4ccc(Cl)cc4)CC3)nc(OCC(F)(F)F)n2)cc1 [Compound 3261] | 8.00 to 11.00 |
| Cc1ccn(-c2ccccc2NC(=O)C(=O)NCC(C)(C)CNC(=O)c2ccc(Nc3nc(NC4(c5ccc(Cl)cc5)CC4)nc(OCC(F)(F)F)n3)cc2)n1 [Compound 3260] | 8.00 to 11.00 |
| Cc1ccc(NC(=O)C(=O)N(C)CCCN(C)C(=O)c2ccc(Nc3nc(NC4(c5ccc(Cl)cc5)CC4)nc(OCC(F)(F)F)n3)cc2)cc1Cl [Compound 3434] | 8.00 to 11.00 |
| COc1ccc(NC(=O)C(=O)NCC(C)(C)CNC(=O)c2ccc(Nc3nc(NC4(c5ccc(Cl)cc5)CC4)nc(OCC(F)(F)F)n3)cc2)cn1 [Compound 3257] | 8.00 to 11.00 |
| Cc1ccc(NC(=O)C(=O)NCC(C)(C)CNC(=O)c2ccc(Nc3nc(NC4(c5ccc(Cl)cc5)CC4)nc(OCC(F)(F)F)n3)cc2)c(F)c1 [Compound 3056] | 8.00 to 11.00 |
| COC(=O)[C@H](CCNC(=O)C(=O)Nc1ccc(N2CCCC2=O)cc1)NC(=O)c1ccc(Nc2nc(NC3(c4ccc(Cl)cc4)CC3)nc(OCC(F)(F)F)n2)cc1 [Compound 3126] | 8.00 to 11.00 |
| COC(=O)[C@H](CCNC(=O)C(=O)Nc1ccc(-n2cnnn2)cc1)NC(=O)c1ccc(Nc2nc(NC3(c4ccc(Cl)cc4)CC3)nc(OCC(F)(F)F)n2)cc1 [Compound 3308] | 8.00 to 11.00 |
| CCc1ccc(NC(=O)C(=O)NC[C@H](NC(=O)c2ccc(Nc3nc(NC4(c5ccc(Cl)cc5)CC4)nc(OCC(F)(F)F)n3)cc2)C(=O)O)cc1 [Compound 3296] | 8.00 to 11.00 |
| O=C(NCC(O)CNC(=O)c1ccc(Nc2nc(NC3(c4ccc(Cl)cc4)CC3)nc(OCC(F)(F)F)n2)cc1)C(=O)Nc1ccc(F)cc1 (stereo not drawn) [Compound 3365] | 8.00 to 11.00 |
| NC(=O)NCc1ccc(NC(=O)C(=O)NC[C@H](NC(=O)c2ccc(Nc3nc(NC4(c5ccc(Cl)cc5)CC4)nc(OCC(F)(F)F)n3)cc2)C(=O)O)cc1 [Compound 3281] | 8.00 to 11.00 |
| COC(=O)[C@H](CCNC(=O)C(=O)Nc1ccc(-c2nc(OC)cc(OC)n2)cc1)NC(=O)c1ccc(Nc2nc(NC3(c4ccc(Cl)cc4)CC3)nc(OCC(F)(F)F)n2)cc1 [Compound 3302] | 8.00 to 11.00 |
| O=C(NCC[C@H](NC(=O)c1ccc(Nc2nc(NC3(c4ccc(Cl)cc4)CC3)nc(OCC(F)(F)F)n2)cc1)C(=O)O)C(=O)Nc1ccc(OCC(F)(F)F)cc1 [Compound 3226] | 8.00 to 11.00 |
| NC(=O)C(=O)N1CCCC(CNC(=O)c2ccc(Nc3nc(NC4(c5ccc(Cl)cc5)CC4)nc(OCC(F)(F)F)n3)cc2)C1 (stereo not drawn) [Compound 3480] | 8.00 to 11.00 |
| CC(C)(C)c1ccc(NC(=O)C(=O)NC[C@H](NC(=O)c2ccc(Nc3nc(NC4(c5ccc(Cl)cc5)CC4)nc(OCC(F)(F)F)n3)cc2)C(=O)O)cc1 [Compound 3294] | 8.00 to 11.00 |
| CC(C)(CNC(=O)C(=O)Nc1ccccc1C(=O)N1CCCCC1)CNC(=O)c1ccc(Nc2nc(NC3(c4ccc(Cl)cc4)CC3)nc(OCC(F)(F)F)n2)cc1 [Compound 3063] | 8.00 to 11.00 |
| CC(C)(CNC(=O)C(=O)NCc1ccc(-c2ccccc2)cc1)CNC(=O)c1ccc(Nc2nc(NC3(c4ccc(Cl)cc4)CC3)nc(OCC(F)(F)F)n2)cc1 [Compound 3017] | 8.00 to 11.00 |
| COC(=O)[C@H](CCNC(=O)C(=O)Nc1ccc(C(N)=O)cc1)NC(=O)c1ccc(Nc2nc(NC3(c4ccc(Cl)cc4)CC3)nc(OCC(F)(F)F)n2)cc1 [Compound 3116] | 8.00 to 11.00 |
| O=C(NCCC(NC(=O)c1ccc(Nc2nc(NC3(c4ccc(Cl)cc4)CC3)nc(OCC(F)(F)F)n2)cc1)C(=O)O)C(=O)Nc1ccc(Oc2ccc(F)cc2)cc1 (stereo not drawn) [Compound 3522] | 6.00 to 8.00 |
